US20090042964A1, “AMINO-5-[SUBSTITUTED-4-(DIFLUOROMETHOXY)PHENYL]-5-PHENYLIMIDAZOLONE COMPOUNDS AS BETA-SECRETASE INHIBITORS” (Wyeth, priority 2007, published 2009)

target: human BACE1 (Homo sapiens, UniProt P56817); assay: Fluorescent kinetic assay, evaluation of BACE1 binding affinity of test compounds; format: biochemical; details: 10 nM human BACE1, 25 μM substrate WABC-6, pH 4.5, room temperature; read-out: BACE1 IC50
Experimental: Concentration is determined by absorbance at 354 nm using an extinction coefficient of 18172 M^-1 cm^-1, the concentration of stock substrate is corrected, and the substrate stock stored in small aliquots in -80° C. […] Determination of Stock Enzyme Concentration: the stock concentration of each enzyme is determined by absorbance at 280 nm using an of 64150 M^-1 cm^-1 for hBACE1 and MuBACE1, 62870 M^-1 cm^-1 for hBACE2 in 6 M Guanidinium Hydrochloride (from Research Organics, Cat. # 5134G-2), pH 6. […] Biochem. 182, 319-326). Dilution and mixing steps: total reaction volume: 100 μL 2× inhibitor dilutions in buffer A (66.7 mM Na-Acetate, pH 4.5, 0.0667% CHAPS) were prepared, 4× enzyme dilution in buffer A (66.7 mM Na-Acetate, pH 4.5, 0.0667% CHAPS) were prepared, 100 μM substrate dilution in 1×PBS was prepared, and 50 μL 2× Inhibitor, 25 μL 100 μM substrate are added to each well of 96-well plate (from DYNEX Technologies, VWR #: 11311-046), immediately followed by 25 μL 4× enzyme (added to the inhibitor and substrate mix), and the fluorescence readings are initiated.

human BACE1, sequence (P56817 46-501): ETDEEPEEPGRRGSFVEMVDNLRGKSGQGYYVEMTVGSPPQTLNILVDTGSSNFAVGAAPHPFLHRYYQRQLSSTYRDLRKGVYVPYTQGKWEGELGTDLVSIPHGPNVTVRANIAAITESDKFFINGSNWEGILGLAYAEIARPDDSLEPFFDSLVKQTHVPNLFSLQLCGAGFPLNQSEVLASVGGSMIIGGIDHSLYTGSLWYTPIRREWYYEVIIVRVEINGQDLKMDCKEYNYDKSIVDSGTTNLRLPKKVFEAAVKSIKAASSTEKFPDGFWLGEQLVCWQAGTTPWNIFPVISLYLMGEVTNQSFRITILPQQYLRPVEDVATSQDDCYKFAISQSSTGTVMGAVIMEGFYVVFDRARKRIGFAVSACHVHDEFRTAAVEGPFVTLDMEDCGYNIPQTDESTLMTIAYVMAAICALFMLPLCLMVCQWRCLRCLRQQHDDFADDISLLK

Structure (SMILES)	IC50
CCC#Cc1cccc(C2(c3ccc(OC(F)F)c(C4CC4)c3)N=C(N)N(C)C2=O)c1 (stereo not shown) [Example 171, 2-amino-4-(3-(but-1-ynyl)phenyl)-4-(3-cyclopropyl-4-(difluoromethoxy)phenyl)-1-methyl-1H-imidazol-5(4H)-one]	< 0.1 µM
CC#Cc1cccc([C@@]2(c3ccc(OC(F)F)c(C4CC4)c3)N=C(N)N(C)C2=O)c1 (single isomer, unassigned) [Example 169]	< 0.1 µM
CC(C)c1cc(C2(c3ccccc3)N=C(N)N(C)C2=O)ccc1OC(F)F (stereo not shown) [Example 137, 2-Amino-5-[4-(difluoromethoxy)-3-isopropylphenyl]-3-methyl-5-phenyl-3,5-dihydro-4H-imidazol-4-one]	0.11 to 1 µM
Cc1cc([C@]2(c3cccc(C#CCF)c3)N=C(N)N(C)C2=O)ccc1OC(F)F [Example 201, (5S)-2-amino-5-[4-(difluoromethoxy)-3-methylphenyl]-5-[3-(3-fluoroprop-1-yn-1-yl)phenyl]-3-methyl-3,5-dihydro-4H-imidazol-4-one]	< 0.1 µM
CCC#Cc1cc(C2(c3ccc(OC(F)F)c(CCF)c3)N=C(N)N(C)C2=O)ccc1F (stereo not shown) [Example 89, 2-amino-5-(3-but-1-yn-1-yl-4-fluorophenyl)-5-[4-(difluoromethoxy)-3-(2-fluoroethyl)phenyl]-3-methyl-3,5-dihydro-4H-imidazol-4-one]	< 0.1 µM
CC(C)c1cc(C2(c3ccc(F)c(C#CC4CC4)c3)N=C(N)N(C)C2=O)ccc1OC(F)F (stereo not shown) [Example 145, 2-Amino-5-[3-(cyclopropylethynyl)-4-fluorophenyl]-5-[4-(difluoromethoxy)-3-isopropylphenyl]-3-methyl-3,5-dihydro-4H-imidazol-4-one]	< 0.1 µM
CCc1cc([C@]2(c3ccc(F)c(OCC(F)F)c3)N=C(N)N(C)C2=O)ccc1OC(F)F [Example 119, (5R)-2-Amino-5-[3-(2,2-difluoroethoxy)-4-fluorophenyl]-5-[4-(difluoromethoxy)-3-ethylphenyl]-3-methyl-3,5-dihydro-4H-imidazol-4-one]	< 0.1 µM
CCc1cc(C2(c3ccc(F)c(OCCCF)c3)N=C(N)N(C)C2=O)ccc1OC(F)F (stereo not shown) [Example 120, 2-Amino-5-[4-(difluoromethoxy)-3-ethylphenyl]-5-[4-fluoro-3-(3-fluoropropoxy)phenyl]-3-methyl-3,5-dihydro-4H-imidazol-4-one]	< 0.1 µM
CC(C)C#Cc1cccc([C@]2(c3ccc(OC(F)F)c(C4CC4)c3)N=C(N)N(C)C2=O)c1 (single isomer, unassigned) [Example 175]	> 1 µM
CN1C(=O)C(c2ccc(F)c(C#CCCF)c2)(c2ccc(OC(F)F)c(C3CC3)c2)N=C1N (stereo not shown) [Example 208, 2-amino-5-[3-cyclopropyl-4-(difluoromethoxy)phenyl]-5-[4-fluoro-3-(4-fluorobut-1-yn-1-yl)phenyl]-3-methyl-3,5-dihydro-4H-imidazol-4-one]	< 0.1 µM
CN1C(=O)C(c2cccc(C#CCCCO)c2)(c2ccc(OC(F)F)c(C3CC3)c2)N=C1N (stereo not shown) [Example 188, 2-amino-4-(3-cyclopropyl-4-(difluoromethoxy)phenyl)-4-(3-(5-hydroxypent-1-ynyl)phenyl)-1-methyl-1H-imidazol-5(4H)-one]	< 0.1 µM
CN1C(=O)C(c2ccc(F)c(OCCC(F)F)c2)(c2ccc(OC(F)F)c(C3CC3)c2)N=C1N (stereo not shown) [Example 133, 2-Amino-5-[3-cyclopropyl-4-(difluoromethoxy)phenyl]-5-[3-(3,3-difluoropropoxy)-4-fluorophenyl]-3-methyl-3,5-dihydro-4H-imidazol-4-one]	< 0.1 µM
CCc1cc([C@@]2(c3ccc(F)c(C#CC(C)C)c3)N=C(N)N(C)C2=O)ccc1OC(F)F [Example 155, (5S)-2-Amino-5-[4-(difluoromethoxy)-3-ethylphenyl]-5-[4-fluoro-3-(3-methylbut-1-yn-1-yl)phenyl]-3-methyl-3,5-dihydro-4H-imidazol-4-one]	0.11 to 1 µM
CCc1cc([C@@]2(c3ccc(F)c(OCC(F)F)c3)N=C(N)N(C)C2=O)ccc1OC(F)F [Example 118, (5S)-2-Amino-5-[3-(2,2-difluoroethoxy)-4-fluorophenyl]-5-[4-(difluoromethoxy)-3-ethylphenyl]-3-methyl-3,5-dihydro-4H-imidazol-4-one]	> 1 µM
CN1C(=O)[C@](c2cccc(C#CCCCF)c2)(c2ccc(OC(F)F)c(C3CC3)c2)N=C1N (single isomer, unassigned) [Example 192]	< 0.1 µM

Other lines, results leading:

IC50	Structure (SMILES)
> 1 µM	Cc1cc([C@]2(c3ccc(F)cc3)N=C(N)N(C)C2=O)ccc1OC(F)F [Example 4A, (5S)-2-Amino-4-(4-(difluoromethoxy)-3-methylphenyl)-4-(4-fluorophenyl)-1-methyl-1H-imidazol-5(4H)-one]
0.11 to 1 µM	Cc1cc([C@@]2(c3ccc(F)c(OCCCF)c3)N=C(N)N(C)C2=O)ccc1OC(F)F [Example 110, (5S)-2-Amino-5-[4-(difluoromethoxy)-3-methylphenyl]-5-[4-fluoro-3-(3-fluoropropoxy)phenyl]-3-methyl-3,5-dihydro-4H-imidazol-4-one]
0.11 to 1 µM	Cc1cc([C@@]2(c3ccc(F)c(C#CCCF)c3)N=C(N)N(C)C2=O)ccc1OC(F)F [Example 207, (5S)-2-amino-5-[4-(difluoromethoxy)-3-methylphenyl]-5-[4-fluoro-3-(4-fluorobut-1-yn-1-yl)phenyl]-3-methyl-3,5-dihydro-4H-imidazol-4-one]
0.11 to 1 µM	Cc1cc(C2(c3ccc(OC(F)F)c(C)c3)N=C(N)N(C)C2=O)ccc1OC(F)F [Example 71, 2-Amino-5,5-bis-[4-(difluoromethoxy)-3-methylphenyl]-3-methyl-3,5-dihydro-4H-imidazol-4-one]
> 1 µM	Cc1cc([C@@]2(c3ccc(F)c(OCC4CC4)c3)N=C(N)N(C)C2=O)ccc1OC(F)F [Example 107, (5S)-2-Amino-5-[3-(cyclopropylmethoxy)-4-fluorophenyl]-5-[4-(difluoromethoxy)-3-methylphenyl]-3-methyl-3,5-dihydro-4H-imidazol-4-one]
< 0.1 µM	Cc1cc(C2(c3cccc(C#CCF)c3)N=C(N)N(C)C2=O)ccc1OC(F)F (stereo not shown) [Example 196, 2-amino-5-[4-(difluoromethoxy)-3-methylphenyl]-5-[3-(3-fluoroprop-1-yn-1-yl)phenyl]-3-methyl-3,5-dihydro-4H-imidazol-4-one]
< 0.1 µM	COCC/C=C/c1cc(C2(c3ccc(OC(F)F)c(C)c3)N=C(N)N(C)C2=O)ccc1F (stereo not shown) [Example 60, 2-Amino-5-[4-(difluoromethoxy)-3-methylphenyl]-5-[4-fluoro-3-((E)-4-methoxy-but-1-enyl)phenyl]-3-methyl-3,5-dihydro-4H-imidazol-4-one]
< 0.1 µM	CCC#Cc1cc(C2(c3ccc(OC(F)F)c(C)c3)N=C(N)N(C)C2=O)ccc1F (stereo not shown) [Example 82, 2-amino-5-(3-but-1-yn-1-yl-4-fluorophenyl)-5-[4-(difluoromethoxy)-3-methylphenyl]-3-methyl-3,5-dihydro-4H-imidazol-4-one]
0.11 to 1 µM	Cc1cccc(C2(c3ccc(OC(F)F)c(C)c3)N=C(N)N(C)C2=O)c1 (stereo not shown) [Example 77, 2-amino-5-[4-(difluoromethoxy)-3-methylphenyl]-3-methyl-5-(3-methylphenyl)-3,5-dihydro-4H-imidazol-4-one]
< 0.1 µM	CCC#Cc1cccc(C2(c3ccc(OC(F)F)c(C)c3)N=C(N)N(C)C2=O)c1 (stereo not shown) [Example 81, 2-amino-4-(3-(but-1-ynyl)phenyl)-4-(4-(difluoromethoxy)-3-methylphenyl)-1-methyl-1H-imidazol-5(4H)-one]
0.11 to 1 µM	Cc1cc([C@@]2(c3cccc(OCCC(F)F)c3)N=C(N)N(C)C2=O)ccc1OC(F)F [Example 128, (5S)-2-Amino-5-[4-(difluoromethoxy)-3-methylphenyl]-5-[3-(3,3-difluoropropoxy)phenyl]-3-methyl-3,5-dihydro-4H-imidazol-4-one]
> 1 µM	Cc1cc([C@@]2(c3ccc(F)c(OCCC(F)F)c3)N=C(N)N(C)C2=O)ccc1OC(F)F [Example 131, (5S)-2-Amino-5-[4-(difluoromethoxy)-3-methylphenyl]-5-[3-(3,3-difluoropropoxy)-4-fluorophenyl]-3-methyl-3,5-dihydro-4H-imidazol-4-one]
< 0.1 µM	CN1C(=O)C(c2ccc(OC(F)F)c(Cl)c2)(c2ccc(F)c(OCCCF)c2)N=C1N (stereo not shown) [Example 98, 2-Amino-5-[3-chloro-4-(difluoromethoxy)phenyl]-5-[4-fluoro-3-(3-fluoropropoxy)phenyl]-3-methyl-3,5-dihydro-4H-imidazol-4-one]

same assay, conditions: BACE1 IC50 μM, 10 nM human BACE1, 25 μM substrate WABC-6, pH 4.5, room temperature

Structure (SMILES)	IC50
COc1cc(C2(c3ccccc3)N=C(N)N(C)C2=O)ccc1OC(F)F (stereo not shown) [Example 15, 2-Amino-5-[4-(difluoromethoxy)-3-methoxyphenyl]-3-methyl-5-phenyl-3,5-dihydro-4H-imidazol-4-one]	0.11 to 1 µM
Cc1cc(C2(c3ccc(OC(F)F)c(C)c3)N=C(N)N(C)C2=O)ccc1F (stereo not shown) [Example 20, 2-Amino-5-[4-(difluoromethoxy)-3-methylphenyl]-5-(4-fluoro-3-methylphenyl)-3-methyl-3,5-dihydro-4H-imidazol-4-one]	0.11 to 1 µM
C=Cc1cc([C@]2(c3ccccc3)N=C(N)N(C)C2=O)ccc1OC(F)F [Example 34, (5S)-2-Amino-5-[4-(difluoromethoxy)-3-vinylphenyl]-3-methyl-5-phenyl-3,5-dihydro-4H-imidazol-4-one]	> 1 µM
